Laboratory results reported in patent US20240336591A1, “ORGANIC PYRIDINE-PYRAZOLE COMPOUNDS AND THEIR USES” (priority 2021, published 2024).
“Also recorded” adds a separate entry of the source. Read-outs that look alike come from different tables or passages of the source.

What was measured:
Human PDE10A2 [1] = target: T1, Human PDE10A2 (Homo sapiens (Human), UniProt Q9Y233); assay: Biochemical human PDE10A activity assay - PDE10A2 Phosphate Sensor Assay; conditions: cGMP 3 μM substrate, PDE10A2 0.25 nM
Procedure: Biochemical Human PDE10A Activity Assay—PDE10A2 Phosphate Sensor Assay
Semi Log compound dilutions starting at a final concentration of 50 μM were dispensed into a black 384 well plate alongside, DMSO and an Inhibited control using the Echo Acoustic dispenser. […] Data was analysed using a 4-parameter fit.

Human PDE10A2 [2] = target: T1, Human PDE10A2; assay: Cell based human PDE10A activity assay - cAMP HTRF assay in HEK 293 rhPDE10A2 cell line
Procedure: Semi log compound dilutions starting at a final concentration of 10 μM were dispensed into a white 384 well plate, alongside DMSO and an Inhibited control using the Tecan D300e digital dispenser. HEK 293 cells overexpressing recombinant human PDE10A2 were seeded on top of the compounds at 2500 cells/well in a volume 5 μL/well. The plate was incubated at room temperature for 60 minutes. To induce endogenous cAMP, 5 μL/well of Forskolin at a final assay concentration of 10 μM was added to the plate. The plate was incubated at room temperature for a further 45 minutes. cAMP HTRF detection reagents were added, and the plate was incubated for 60 minutes at room temperature. […] Data was analysed using a 4-parameter fit.

[3] = Determination of CNS penetration in vivo (brain to plasma partitioning, Kpuu); design: species or system Male Sprague Dawley Rats; conditions: male, Sprague-Dawley, brain / plasma (unbound); rat, IV, 1 mg/kg, 10-30 min post dose
[4] = test system: inflamed colonic mucosa from ulcerative colitis patients; assay: Ex-vivo colon biopsy culture from ulcerative colitis patients, cytokine release (Protocol 1); assay type: cell-based, human
Procedure: The effect of selective PDE10A inhibition was tested on inflamed colonic mucosa from ulcerative colitis patients taken during routine endoscopy (Protocol 1 detailed below). These samples retain a disease phenotype in ex-vivo culture, secrete high basal levels of inflammatory cytokines, and represent a highly relevant and translational disease model. The effect of the PDE10A inhibitors on levels of the inflammatory cytokines IL-6 and IL-8 released from these tissue samples were measured. Both IL-6 and IL-8 are key regulators in ulcerative colitis pathology and their levels correlate with disease severity (Waldner M J et al. Master regulator of intestinal disease: IL-6 in chronic inflammation and cancer development. Semin Immunol. 26(1), 75-9 (2014); Bernardo D et al. IL-6 promotes immune responses in human ulcerative colitis and induces a skin-homing phenotype in the dendritic cells and T-cells they stimulate. Eur J Immunol. 42(5), 1337-53 (2012); Pearl D S, Cytokine mucosal expression in ulcerative colitis, the relationship between cytokine release and disease activity. J Crohns Colitis. 7(6), 481-9 (2013)).
These colon biopsies retain an inflammatory phenotype and secrete high levels of inflammatory cytokines in ex-vivo culture.
(§1) Biopsy tissue was obtained from inflamed colonic mucosa from ulcerative colitis or Crohn's disease patients during routine endoscopy. Ex-vivo biopsy cultures for the analysis of inflammatory cytokine biomarkers were run as previously described (Vossenkämper A. et al. A CD3- specific antibody reduces cytokine production and alters phosphoprotein profiles in intestinal tissues from patients with inflammatory bowel disease. Gastroenterology, 147, 172-183 (2014)). Biopsies were incubated in organ culture for 24 h with the addition of positive control compounds, or specific PDE10A inhibitors. Supernatants collected at the end of the experiment were snap-frozen and stored at −70° C. For the measurement of cytokines, the frozen culture supernatants were thawed and analysed for levels of the inflammatory cytokines using Luminex cytokine assay kits (R&D Systems) and an R&D Systems MAGPIX® analyser. Mean values ±SDs were calculated for the levels of spontaneous cytokine production measured in biopsy culture supernatants from each treatment group.

other PDE family members = conditions: read-out: IC50s for other PDE family members; literature value; cited from earlier work
[5] = test system: inflamed colonic mucosa from pharmacotherapy treatment-refractory ulcerative colitis patients; assay: Ex-vivo culture of inflamed colon tissue from surgical resection of treatment-refractory UC patients, TNFα release (Protocol 2); assay type: cell-based, human; conditions: 1 μM; UC donors 4 and 5; with SEB; about 18 hours; vs DMSO vehicle
[6] = test system: inflamed colonic mucosa from Crohn's Disease patients; assay: Ex-vivo colon biopsy culture from Crohn's disease patients, cytokine release (Protocol 1); assay type: cell-based, human; conditions: 0.1 uM; 2 independent CD patient biopsies; vs DMSO vehicle; listed as PF-2545920
Procedure: In addition, we tested the effect of selective PDE10A inhibition using 0.1 uM PF-2545920 on inflamed colonic mucosa from Crohn's Disease patients taken during routine endoscopy (Protocol 1).
as §1

[7] = test system: isolated human neutrophil; assay: In vitro assay of IL-8 neutrophil activation; assay type: cell-based
[8] = 100 nM, UC donor 3, vs vehicle control
[9] = UC donors 1 and 2, PF-02545920 0.1 μM and 1 μM, TAK-063 1 uM, 24 h, vs DMSO vehicle
[10] = Forskolin 10 μM, read-out: cAMP HTRF Assay in HEK 293 rhPDE10A2 cell line (pIC50) (converted)

T1 sequence (Q9Y233 267-1055): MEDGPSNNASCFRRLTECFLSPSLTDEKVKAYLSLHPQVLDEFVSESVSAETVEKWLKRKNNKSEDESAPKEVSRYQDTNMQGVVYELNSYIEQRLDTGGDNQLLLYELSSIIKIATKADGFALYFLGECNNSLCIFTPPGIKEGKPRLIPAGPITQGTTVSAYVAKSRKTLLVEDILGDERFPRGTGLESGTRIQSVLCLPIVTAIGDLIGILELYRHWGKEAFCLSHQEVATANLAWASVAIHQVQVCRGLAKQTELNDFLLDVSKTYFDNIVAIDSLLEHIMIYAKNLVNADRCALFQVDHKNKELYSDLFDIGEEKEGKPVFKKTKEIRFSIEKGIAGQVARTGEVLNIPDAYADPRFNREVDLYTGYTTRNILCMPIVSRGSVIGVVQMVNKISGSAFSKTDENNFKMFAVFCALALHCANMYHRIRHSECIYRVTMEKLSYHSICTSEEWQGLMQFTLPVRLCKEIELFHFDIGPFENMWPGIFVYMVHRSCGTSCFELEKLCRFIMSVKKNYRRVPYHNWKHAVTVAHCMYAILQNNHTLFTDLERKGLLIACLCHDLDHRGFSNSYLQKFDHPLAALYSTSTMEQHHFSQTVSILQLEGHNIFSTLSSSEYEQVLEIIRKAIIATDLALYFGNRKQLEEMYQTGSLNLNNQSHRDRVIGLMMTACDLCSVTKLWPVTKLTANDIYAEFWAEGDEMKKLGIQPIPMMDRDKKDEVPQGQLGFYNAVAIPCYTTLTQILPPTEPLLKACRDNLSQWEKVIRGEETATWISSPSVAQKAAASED

Compound | PDE10A2 Phosphate Sensor Enzyme Assay (pIC50) (Human PDE10A2 [1]) | IC50 (Human PDE10A2 [2]) | Kp uu [3] | secreted levels of IL-6 [4, 8] | secreted levels of IL-8 [4, 8] | also measured
O=C(O)Cn1cc(-c2ccncc2)c(-c2ccc(OCc3ccc4ccccc4n3)cc2)n1 [Example 5, 2-[4-(4-Pyridyl)-3-[4-(2-quinolylmethoxy)phenyl]pyrazol-1-yl]acetic acid] | 9.41 | 75.9 nM | 0.02 |  |  | 
Cn1cc(-c2ccncc2)c(-c2ccc(OCc3nc4ccccc4cc3C(=O)N=S(C)(C)=O)cc2)n1 [Example 10, N-[Dimethyl(oxo)-λ6-sulfanylidene]-2-[[4-[1-methyl-4-(4-pyridyl)pyrazol-3-yl]phenoxy]methyl]quinoline-3-carboxamide] | 10 | 1.1 nM | 0.02 | significantly reduce | significantly reduce | 
Cn1cc(-c2ccncc2)c(-c2ccc(OCc3nc4ccccn4c3C(=O)N=S(C)(C)=O)cc2)n1 [Example 20, N-[Dimethyl(oxo)-λ6-sulfanylidene]-2-[[4-[1-methyl-4-(4-pyridyl)pyrazol-3-yl]phenoxy]methyl]imidazo[1,2-a]pyridine-3-carboxamide] | 9.76 | 6.76 nM | 0.11 | significantly reduce | significantly reduce | 
COc1cn(-c2ccc(-n3cccn3)cc2F)nc(-c2ccnn2-c2ccccc2)c1=O [TAK-063, 1-[2-fluoro-4-(1H-pyrazol-1-yl)phenyl]-5-methoxy-3-(1-phenyl-1H-pyrazol-5-yl)pyridazin-4(1H)-one, reference compound] |  |  |  |  |  | secreted levels of IL-6 [4, 9]: inhibiting; also recorded: significantly reduced; secreted levels of IL-8 [4, 9]: inhibiting; also recorded: significantly reduced; IC50 (other PDE family members): > 5000 nM
Cn1cc(-c2ccncc2)c(-c2ccc(OCc3cc(C(=O)O)c4ccccc4n3)cc2)n1 [Example 4, Ammonium 2-[[4-[1-methyl-4-(4-pyridyl)pyrazol-3-yl]phenoxy]methyl]quinoline-4-carboxylate] | 10.1 | 0.813 nM | 0.32 | significantly reduce | significantly reduce | 
CN(C(=O)c1cc2ccccc2nc1COc1ccc(-c2nn(C)cc2-c2ccncc2)cc1)S(C)(=O)=O [Example 15, N-Methyl-2-[[4-[1-methyl-4-(4-pyridyl)pyrazol-3-yl]phenoxy]methyl]-N-methylsulfonyl-quinoline-3-carboxamide] | 9.22 | 10.7 nM | 0.06 |  |  | 
Cn1cc(-c2ccncc2)c(-c2ccc(OCc3nc(C(=O)N=S(C)(C)=O)c4ccccc4n3)cc2)n1 [Example 17, N-[Dimethyl(oxo)-λ6-sulfanylidene]-2-[[4-[1-methyl-4-(4-pyridyl)pyrazol-3-yl]phenoxy]methyl]quinazoline-4-carboxamide] | 9.92 | 3.02 nM | 0.06 | significantly reduce | significantly reduce | 
Cn1cc(-c2ccncc2)c(-c2ccc(OCc3nc4ccccc4nc3C(=O)N=S(C)(C)=O)cc2)n1 [Example 18, N-[Dimethyl(oxo)-λ6-sulfanylidene]-3-[[4-[1-methyl-4-(4-pyridyl)pyrazol-3-yl]phenoxy]methyl]quinoxaline-2-carboxamide] | 9.34 | 102 nM | 0.03 |  |  | 
Cn1cc(-c2ccncc2)c(-c2ccc(OCc3ccc4ccccc4n3)cc2)n1 [PF-02545920] |  |  |  |  |  | secreted levels of IL-6 [4, 9]: inhibiting; also recorded: significantly reduced; secreted levels of IL-8 [4, 9]: inhibiting; also recorded: significantly reduced; secreted levels of TNFα [5]: inhibiting; also recorded: significantly reduced; secreted levels of IL-6 [6]: inhibits; also recorded: significantly reduced; secreted levels of IL-8 [6]: inhibits; also recorded: significantly reduced; IL-8 induced neutrophil activation [7]: dose dependently inhibited; IC50 (other PDE family members): > 1000 nM
Cn1cc(-c2ccncc2)c(-c2ccc(OCc3nc4ccccc4cc3C(=O)NS(C)(=O)=O)cc2)n1 [Example 9, 2-[[4-[1-Methyl-4-(4-pyridyl)pyrazol-3-yl]phenoxy]methyl]-N-methylsulfonyl-quinoline-3-carboxamide] | 10.1 | 1.66 nM | 0.37 | significantly reduce | significantly reduce | 
Cn1cc(-c2ccncc2)c(-c2ccc(OCc3cc(C(=O)N=S(C)(C)=O)c4ccccc4n3)cc2)n1 [Example 11, N-[Dimethyl(oxo)-λ6-sulfanylidene]-2-[[4-[1-methyl-4-(4-pyridyl)pyrazol-3-yl]phenoxy]methyl]quinoline-4-carboxamide] | 10.1 | 1 nM | 0.02 | significantly reduce | significantly reduce | 
Cn1cc(-c2ccncc2)c(-c2ccc(OCc3nc4cccnc4cc3C(=O)N=S(C)(C)=O)cc2)n1 [Example 19, N-[Dimethyl(oxo)-λ6-sulfanylidene]-2-[[4-[1-methyl-4-(4-pyridyl)pyrazol-3-yl]phenoxy]methyl]-1,5-naphthyridine-3-carboxamide] | 9.43 | 5.37 nM | 0.05 | significantly reduce | significantly reduce | 
Cn1cc(-c2ccncc2)c(-c2ccc(OCc3nc4cccc(F)c4cc3C(=O)N=S(C)(C)=O)cc2)n1 [Example 23, N-[Dimethyl(oxo)-λ6-sulfanylidene]-5-fluoro-2-[[4-[1-methyl-4-(4-pyridyl)pyrazol-3-yl]phenoxy]methyl]quinoline-3-carboxamide] | 9.59 |  |  |  |  | IC50 (Human PDE10A2 [2]; [10]): 3.98 nM
CS(C)(=O)=NC(=O)c1cc2ccccc2nc1COc1ccc(-c2n[nH]cc2-c2ccncc2)cc1 [Example 31, N-[Dimethyl(oxo)-λ6-sulfanylidene]-2-[[4-[4-(4-pyridyl)-1H-pyrazol-3-yl]phenoxy]methyl]quinoline-3-carboxamide] | 10 | 13.8 nM |  |  |  | 
O=C(O)c1cc2ccccc2nc1COc1ccc(-c2n[nH]cc2-c2ccncc2)cc1 [Example 29, 2-[[4-[4-(4-Pyridyl)-1H-pyrazol-3-yl]phenoxy]methyl]quinoline-3-carboxylic acid] | 10 |  |  |  |  | IC50 (Human PDE10A2 [2]; [10]): 0.347 nM
O=C(O)c1cc(COc2ccc(-c3n[nH]cc3-c3ccncc3)cc2)nc2ccccc12 [Example 30, 2-[[4-[4-(4-Pyridyl)-1H-pyrazol-3-yl]phenoxy]methyl]quinoline-4-carboxylic acid] | 10.2 |  |  |  |  | IC50 (Human PDE10A2 [2]; [10]): 0.138 nM
Cn1cc(-c2ccncc2)c(-c2ccc(OCc3nc4ccccc4cc3C(=O)O)cc2)n1 [Example 3, 2-[[4-[1-Methyl-4-(4-pyridyl)pyrazol-3-yl]phenoxy]methyl]quinoline-3-carboxylic acid] | 10.1 | 2.75 nM | 0.56 |  |  | 
